Assay results: the NIST ThermoML archive (doi:10.1016/j.jct.2014.09.020)

Legend:
[1] = Liquid; for speed of sound: Frequency=4 MHz, Single path-length method; for mass density: Vibrating tube method
[2] = xn = mol fraction of the nth substance listed; details: Liquid, x1 = 1; for speed of sound: Frequency=4 MHz, Single path-length method; for mass density: Vibrating tube method

c1ccc2c(c1)CCCC2 [1,2,3,4-tetrahydronaphthalene]
[1]
Details | mass density, 100 kPa [kg/m3] | speed of sound, 100 kPa [m/s] | speed of sound, 5000 kPa [m/s] | speed of sound, 10000 kPa [m/s] | speed of sound, 15000 kPa [m/s] | speed of sound, 20000 kPa [m/s] | speed of sound, 25000 kPa [m/s]
313.15 K | 952.93 | 1413 | 1434 | 1455 | 1475 | 1495 | 1513
323.15 K | 944.99 | 1374 | 1397 | 1419 | 1439 | 1459 | 1480
333.15 K | 937.04 | 1335 | 1359 | 1383 | 1402 | 1425 | 1445

CCCCCCCCCC [decane]
[1]
Details | mass density, 100 kPa [kg/m3] | speed of sound, 100 kPa [m/s] | speed of sound, 5000 kPa [m/s] | speed of sound, 10000 kPa [m/s] | speed of sound, 15000 kPa [m/s] | speed of sound, 20000 kPa [m/s] | speed of sound, 25000 kPa [m/s]
313.15 K | 714.87 | 1177 | 1209 | 1243 | 1274 | 1303 | 1327
323.15 K | 707.2 | 1139 | 1174 | 1207 | 1238 | 1269 | 1296
333.15 K | 699.47 | 1099 | 1134 | 1171 | 1204 | 1234 | 1264

CCCCCCCCCC [decane] + c1ccc2c(c1)CCCC2
[2]
Details | mass density, 100 kPa [kg/m3] | speed of sound, 100 kPa [m/s] | speed of sound, 5000 kPa [m/s] | speed of sound, 10000 kPa [m/s] | speed of sound, 15000 kPa [m/s] | speed of sound, 20000 kPa [m/s] | speed of sound, 25000 kPa [m/s]
313.15 K | 714.87 | 1177 | 1209 | 1243 | 1274 | 1303 | 1327
323.15 K | 707.2 | 1139 | 1174 | 1207 | 1238 | 1269 | 1296
333.15 K | 699.47 | 1099 | 1134 | 1171 | 1204 | 1234 | 1264

CCCCCCCCCCCCCCCC [hexadecane]
[1]
Details | mass density, 100 kPa [kg/m3] | speed of sound, 100 kPa [m/s] | speed of sound, 5000 kPa [m/s] | speed of sound, 10000 kPa [m/s] | speed of sound, 15000 kPa [m/s] | speed of sound, 20000 kPa [m/s] | speed of sound, 25000 kPa [m/s]
313.15 K | 759.55 | 1283 | 1311 | 1340 | 1366 | 1391 | 1416
323.15 K | 752.64 | 1248 | 1278 | 1307 | 1335 | 1361 | 1387
333.15 K | 745.73 | 1212 | 1242 | 1273 | 1301 | 1328 | 1354

CCCCCCCCCCCCCCCC [hexadecane] + c1ccc2c(c1)CCCC2
[2]
Details | mass density, 100 kPa [kg/m3] | speed of sound, 100 kPa [m/s] | speed of sound, 5000 kPa [m/s] | speed of sound, 10000 kPa [m/s] | speed of sound, 15000 kPa [m/s] | speed of sound, 20000 kPa [m/s] | speed of sound, 25000 kPa [m/s]
313.15 K | 759.55 | 1283 | 1311 | 1340 | 1366 | 1391 | 1416
323.15 K | 752.64 | 1248 | 1278 | 1307 | 1335 | 1361 | 1387
333.15 K | 745.73 | 1212 | 1242 | 1273 | 1301 | 1328 | 1354
